In US12077503B2, “Substituted cyclic amides and their use as herbicides” (FMC CORPORATION, priority 2015, dated 2024):
Where two headings read alike, the source gives them in different places.

Assays:
Assay in all cases: Test A preemergence
Assay type in all cases: in vivo
[1] = test system: ryegrass, Italian (Italian ryegrass, Lolium multiflorum); settings: Lolium multiflorum, pre-emergence, 240 h, 0 to 100 scale (0 no effect, 100 complete control), read-out: Plant response rating, Ryegrass, Italian; for pest or weed control at 125 g/ha: Preemergence, 125 g ai/ha; for pest or weed control at 500 g/ha: 500 g ai/ha, preemergence
In short: (§1)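 Treatment is preemergence as a directed soil spray after planting, or postemergence at the one- to two-leaf stage, with test chemical in a non-phytotoxic solvent mixture plus surfactant. Plants stay in the greenhouse about 10 d before visual injury scoring on a 0 to 100 scale versus untreated controls.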

Kochia (Kochia scoparia) = settings: Bassia scoparia, pre-emergence, 240 h; for pest or weed control at 500 g/ha: 500 g ai/ha, preemergence; for pest or weed control at 125 g/ha: Preemergence, 125 g ai/ha
In short: as §1

[2] = test system: pigweed (Amaranthus retroflexus); settings: Amaranthus retroflexus, pre-emergence, 240 h; for pest or weed control at 500 g/ha: 500 g ai/ha, preemergence; for pest or weed control at 125 g/ha: Preemergence, 125 g ai/ha
[3] = test system: giant foxtail (Setaria faberii); settings: Setaria faberi, pre-emergence, 240 h; for pest or weed control at 500 g/ha: 500 g ai/ha, preemergence; for pest or weed control at 125 g/ha: Preemergence, 125 g ai/ha
In short: as §1

[4] = test system: ragweed (common ragweed, Ambrosia elatior); settings: Ambrosia artemisiifolia, pre-emergence, 240 h; for pest or weed control at 500 g/ha: 500 g ai/ha, preemergence; for pest or weed control at 125 g/ha: Preemergence, 125 g ai/ha
In short: as §1

[5] = test system: barnyardgrass (Echinochloa crus-galli); settings: Echinochloa crus-galli, pre-emergence, 240 h; for pest or weed control at 500 g/ha: 500 g ai/ha, preemergence; for pest or weed control at 125 g/ha: Preemergence, 125 g ai/ha
In short: as §1

[6] = 0 to 100 scale where 0 is no effect and 100 is complete control, read-out: Kochia plant response rating
[7] = 0 to 100 scale (0 no effect, 100 complete control), read-out: Plant response rating, Kochia
[8] = 0 to 100 scale where 0 is no effect and 100 is complete control, read-out: Pigweed plant response rating
[9] = 0 to 100 scale (0 no effect, 100 complete control), read-out: Plant response rating, Pigweed
[10] = 0 to 100 scale where 0 is no effect and 100 is complete control, read-out: Foxtail, Giant plant response rating
[11] = 0 to 100 scale (0 no effect, 100 complete control), read-out: Plant response rating, Foxtail, Giant
[12] = 0 to 100 scale where 0 is no effect and 100 is complete control, read-out: Ragweed plant response rating
[13] = 0 to 100 scale (0 no effect, 100 complete control), read-out: Plant response rating, Ragweed
[14] = 0 to 100 scale where 0 is no effect and 100 is complete control, read-out: Barnyardgrass plant response rating
[15] = 0 to 100 scale (0 no effect, 100 complete control), read-out: Plant response rating, Barnyardgrass

CN1C[C@H](c2cccc(C(C)(F)F)c2)[C@@H](C(=O)Nc2ccccc2S(C)(=O)=O)C1=O [Compound 1318] gave a pest or weed control at 125 g/ha [1] of 40%, a pest or weed control at 500 g/ha (Kochia (Kochia scoparia); [6]) of 80% and a pest or weed control at 125 g/ha (Kochia (Kochia scoparia); [7]) of 70%. The pest or weed control at 500 g/ha [2, 8] was 80%, the pest or weed control at 125 g/ha [2, 9] was 70% and the pest or weed control at 500 g/ha [3, 10] was 90%. For the same molecule, the pest or weed control at 125 g/ha [3, 11] was 90%, the pest or weed control at 500 g/ha [4, 12] was 90% and the pest or weed control at 125 g/ha [4, 13] was 0%. The pest or weed control at 500 g/ha [5, 14] was 90% and the pest or weed control at 125 g/ha [5, 15] was 90%.
CS(=O)(=O)c1ccccc1NC(=O)[C@H]1C(=O)NC[C@@H]1c1ccc2c(c1)CCO2 [Compound 1320] showed a pest or weed control at 125 g/ha [1] of 0%, a pest or weed control at 500 g/ha (Kochia (Kochia scoparia); [6]) of 60% and a pest or weed control at 125 g/ha (Kochia (Kochia scoparia); [7]) of 0%. For the same molecule, the pest or weed control at 500 g/ha [2, 8] was 0%, the pest or weed control at 125 g/ha [2, 9] was 0% and the pest or weed control at 500 g/ha [3, 10] was 80%. It also gave a pest or weed control at 125 g/ha [3, 11] of 0%, a pest or weed control at 500 g/ha [4, 12] of 0% and a pest or weed control at 125 g/ha [4, 13] of 0%. It also gave a pest or weed control at 500 g/ha [5, 14] of 60% and a pest or weed control at 125 g/ha [5, 15] of 0%.
With CN1C[C@H](c2ccc3c(c2)CCO3)[C@@H](C(=O)Nc2ccc(F)c(F)c2F)C1=O [Compound 1323] the pest or weed control at 125 g/ha [1] was 20%, the pest or weed control at 500 g/ha (Kochia (Kochia scoparia); [6]) was 90% and the pest or weed control at 125 g/ha (Kochia (Kochia scoparia); [7]) was 80%. The pest or weed control at 500 g/ha [2, 8] was 40%, the pest or weed control at 125 g/ha [2, 9] was 0% and the pest or weed control at 500 g/ha [3, 10] was 90%. For the same molecule, the pest or weed control at 125 g/ha [3, 11] was 90%, the pest or weed control at 500 g/ha [4, 12] was 70% and the pest or weed control at 125 g/ha [4, 13] was 0%. It also gave a pest or weed control at 500 g/ha [5, 14] of 90% and a pest or weed control at 125 g/ha [5, 15] of 90%.
In the case of Cc1c(F)ccc([C@H]2CNC(=O)[C@@H]2C(=O)Nc2cccc(F)c2F)c1F [Compound 1327], the pest or weed control at 500 g/ha [1] was 20%, the pest or weed control at 125 g/ha [1] was 20% and the pest or weed control at 500 g/ha (Kochia (Kochia scoparia); [7]) was 90%. The pest or weed control at 125 g/ha (Kochia (Kochia scoparia); [7]) was 100%, the pest or weed control at 500 g/ha [2, 9] was 30% and the pest or weed control at 125 g/ha [2, 9] was 0%. For the same molecule, the pest or weed control at 500 g/ha [3, 11] was 90%, the pest or weed control at 125 g/ha [3, 11] was 70% and the pest or weed control at 500 g/ha [4, 13] was 0%. The pest or weed control at 125 g/ha [4, 13] was 0%, the pest or weed control at 500 g/ha [5, 15] was 90% and the pest or weed control at 125 g/ha [5, 15] was 90%.
Cc1c(F)ccc([C@H]2CNC(=O)[C@@H]2C(=O)Nc2ccc(F)cc2F)c1F [Compound 1328] showed a pest or weed control at 500 g/ha [1] of 30%, a pest or weed control at 125 g/ha [1] of 0% and a pest or weed control at 500 g/ha (Kochia (Kochia scoparia); [7]) of 50%. For the same molecule, the pest or weed control at 125 g/ha (Kochia (Kochia scoparia); [7]) was 30%, the pest or weed control at 500 g/ha [2, 9] was 0% and the pest or weed control at 125 g/ha [2, 9] was 0%. The pest or weed control at 500 g/ha [3, 11] was 90%, the pest or weed control at 125 g/ha [3, 11] was 50% and the pest or weed control at 500 g/ha [4, 13] was 0%. For the same molecule, the pest or weed control at 125 g/ha [4, 13] was 0%, the pest or weed control at 500 g/ha [5, 15] was 90% and the pest or weed control at 125 g/ha [5, 15] was 70%.
Work on COc1cc(OC)cc([C@H]2CN(C)C(=O)[C@@H]2C(=O)Nc2cccc(F)c2F)c1 [Compound 1370] yielded a pest or weed control at 500 g/ha [1] of 90%, a pest or weed control at 125 g/ha [1] of 80% and a pest or weed control at 500 g/ha (Kochia (Kochia scoparia); [7]) of 80%. It also gave a pest or weed control at 500 g/ha [2, 9] of 20%, a pest or weed control at 125 g/ha [2, 9] of 0% and a pest or weed control at 500 g/ha [3, 11] of 90%. It also gave a pest or weed control at 125 g/ha [3, 11] of 90%, a pest or weed control at 500 g/ha [4, 13] of 80% and a pest or weed control at 125 g/ha [4, 13] of 40%. The pest or weed control at 500 g/ha [5, 15] was 90% and the pest or weed control at 125 g/ha [5, 15] was 90%.
For CN1C[C@H](c2ccc(OC(F)F)cc2)[C@@H](C(=O)Nc2ccccc2F)C1=O [Compound 1371], the pest or weed control at 500 g/ha [1] was 50%, the pest or weed control at 125 g/ha [1] was 0% and the pest or weed control at 500 g/ha (Kochia (Kochia scoparia); [7]) was 90%. The pest or weed control at 125 g/ha (Kochia (Kochia scoparia); [7]) was 80%, the pest or weed control at 500 g/ha [2, 9] was 90% and the pest or weed control at 125 g/ha [2, 9] was 70%. For the same molecule, the pest or weed control at 500 g/ha [3, 11] was 90%, the pest or weed control at 125 g/ha [3, 11] was 90% and the pest or weed control at 500 g/ha [4, 13] was 80%. For the same molecule, the pest or weed control at 125 g/ha [4, 13] was 70%, the pest or weed control at 500 g/ha [5, 15] was 100% and the pest or weed control at 125 g/ha [5, 15] was 90%.
Cc1ccc([C@H]2CN(C)C(=O)[C@@H]2C(=O)Nc2ccccc2F)cc1Cl [Compound 1384] was tested, and the pest or weed control at 500 g/ha [1] was 70%, the pest or weed control at 125 g/ha [1] was 30% and the pest or weed control at 500 g/ha (Kochia (Kochia scoparia); [7]) was 70%. For the same molecule, the pest or weed control at 125 g/ha (Kochia (Kochia scoparia); [7]) was 30%, the pest or weed control at 500 g/ha [2, 9] was 30% and the pest or weed control at 125 g/ha [2, 9] was 30%. It also gave a pest or weed control at 500 g/ha [3, 11] of 90%, a pest or weed control at 125 g/ha [3, 11] of 90% and a pest or weed control at 500 g/ha [4, 13] of 0%. The pest or weed control at 125 g/ha [4, 13] was 0%, the pest or weed control at 500 g/ha [5, 15] was 90% and the pest or weed control at 125 g/ha [5, 15] was 90%.
For CC(C)c1cccc([C@H]2CN(C)C(=O)[C@@H]2C(=O)Nc2cccc(F)c2F)c1 [Compound 1388], the pest or weed control at 500 g/ha [1] was 100%, the pest or weed control at 125 g/ha [1] was 90% and the pest or weed control at 500 g/ha (Kochia (Kochia scoparia); [7]) was 90%. For the same molecule, the pest or weed control at 125 g/ha (Kochia (Kochia scoparia); [7]) was 80%, the pest or weed control at 500 g/ha [2, 9] was 70% and the pest or weed control at 125 g/ha [2, 9] was 30%. For the same molecule, the pest or weed control at 500 g/ha [3, 11] was 100%, the pest or weed control at 125 g/ha [3, 11] was 100% and the pest or weed control at 500 g/ha [4, 13] was 70%. It also gave a pest or weed control at 125 g/ha [4, 13] of 0%, a pest or weed control at 500 g/ha [5, 15] of 100% and a pest or weed control at 125 g/ha [5, 15] of 100%.
Work on CN1C[C@H](c2cccc(C(F)(F)F)c2)[C@@H](C(=O)Nc2ccc(F)c(F)c2F)C1=O [Compound 1389] yielded a pest or weed control at 500 g/ha [1] of 90%, a pest or weed control at 125 g/ha [1] of 80% and a pest or weed control at 500 g/ha (Kochia (Kochia scoparia); [7]) of 90%. It also gave a pest or weed control at 125 g/ha (Kochia (Kochia scoparia); [7]) of 70%, a pest or weed control at 500 g/ha [2, 9] of 80% and a pest or weed control at 125 g/ha [2, 9] of 70%. It also gave a pest or weed control at 500 g/ha [3, 11] of 100%, a pest or weed control at 125 g/ha [3, 11] of 100% and a pest or weed control at 500 g/ha [4, 13] of 30%. The pest or weed control at 125 g/ha [4, 13] was 0%, the pest or weed control at 500 g/ha [5, 15] was 100% and the pest or weed control at 125 g/ha [5, 15] was 100%.
